From patent publication US12655116B2, “Substituted isophthalic acid diamides” (Bayer Aktiengesellschaft, priority 2020, dated 2026)

Legend:
[1] = tested on: ABUTH; assay: Pre-emergence herbicidal action against ABUTH; type: in vivo, Abutilon theophrasti; conditions: for pest or weed control at 80 g/ha / pest or weed control at 20 g/ha: Abutilon theophrasti, 504 h; for pest or weed control at 20 g/ha: read-out: Pre-emergence action against ABUTH (herbicidal activity in percent)
Summary of the method: (§1)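 Sandy loam pots, seeds covered with soil, then surface-treated with WP or EC formulations at 600–800 l/ha water plus 0.2% wetting agent. Greenhouse, 3 weeks. Percent damage vs untreated controls.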

[2] = tested on: ALOMY; assay: Pre-emergence herbicidal action against ALOMY; type: in vivo, Alopecurus myosuroides; conditions: pre-emergence; for pest or weed control at 80 g/ha / pest or weed control at 20 g/ha: Alopecurus myosuroides, 504 h; for pest or weed control at 20 g/ha: scored visually after 3 weeks, 100% = plants have died, 0% = like control plants
Summary of the method: as §1

[3] = tested on: AMARE; assay: Pre-emergence herbicidal action against AMARE; type: in vivo, Amaranthus retroflexus; conditions: for pest or weed control at 20 g/ha / pest or weed control at 80 g/ha: Amaranthus retroflexus, 504 h
Summary of the method: as §1

[4] = tested on: AVEFA; assay: Pre-emergence herbicidal action against AVEFA; type: in vivo, Avena fatua; conditions: pre-emergence
Summary of the method: as §1

[5] = tested on: ECHCG; assay: Pre-emergence herbicidal action against ECHCG; type: in vivo, Echinochloa crus-galli; conditions: 80 g/ha
Summary of the method: as §1

[6] = tested on: LOLRI; assay: Pre-emergence herbicidal action against LOLRI; type: in vivo, Lolium rigidum; conditions: 80 g/ha; for pest or weed control at 80 g/ha: Lolium rigidum, 504 h
Summary of the method: as §1

[7] = tested on: MATIN; assay: Pre-emergence herbicidal action against MATIN; type: in vivo, Matricaria inodora; conditions: for pest or weed control at 20 g/ha / pest or weed control at 80 g/ha: Tripleurospermum inodorum, 504 h; for pest or weed control at 20 g/ha: dosage 20 g/ha
Summary of the method: as §1

[8] = tested on: PHBPU; assay: Pre-emergence herbicidal action against PHBPU; type: in vivo, Pharbitis purpurea
Summary of the method: as §1

[9] = tested on: POLCO; assay: Pre-emergence herbicidal action against POLCO; type: in vivo, Polygonum convolvulus
Summary of the method: as §1

[10] = tested on: SETVI; assay: Pre-emergence herbicidal action against SETVI; type: in vivo, Setaria viridis; conditions: Setaria viridis, 504 h; for pest or weed control at 20 g/ha: dosage 20 g/ha; for pest or weed control at 80 g/ha: dosage 80 g/ha
Summary of the method: as §1

[11] = tested on: VERPE; assay: Pre-emergence herbicidal action against VERPE; type: in vivo, Veronica persica; conditions: for pest or weed control at 80 g/ha: Veronica persica, 504 h
Summary of the method: as §1

[12] = tested on: VIOTR; assay: Pre-emergence herbicidal action against VIOTR; type: in vivo, Viola tricolor; conditions: for pest or weed control at 20 g/ha / pest or weed control at 80 g/ha: Viola tricolor, 504 h
Summary of the method: as §1

[13] = tested on: ABUTH; assay: Post-emergence herbicidal action against ABUTH; type: in vivo, Abutilon theophrasti; conditions: Abutilon theophrasti, 504 h, visual assessment about 3 weeks after treatment vs untreated controls; for pest or weed control at 20 g/ha: dosage 20 g/ha
Summary of the method: (§2)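 Herbicidal action is a visual percentage rating (0% = as untreated control, 100% = plants dead) made roughly 3 weeks after treatment. Plants were grown in sandy loam in the greenhouse and treated at the one-leaf stage, 2 to 3 weeks post-sowing. Treatment was a foliar spray of wettable-powder or emulsion-concentrate formulations at 600 to 800 l/ha water plus 0.2% wetting agent.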

[14] = tested on: ALOMY; assay: Post-emergence herbicidal action against ALOMY; type: in vivo, Alopecurus myosuroides; conditions: dosage 20 g/ha, visual assessment about 3 weeks after treatment vs untreated controls; for pest or weed control at 20 g/ha: Alopecurus myosuroides, 504 h
Summary of the method: as §2

[15] = tested on: AMARE; assay: Post-emergence herbicidal action against AMARE; type: in vivo, Amaranthus retroflexus; conditions: 20 g/ha, visual assessment about 3 weeks after treatment, 100% = plants have died, 0% = like control plants
Summary of the method: as §2

[16] = tested on: ECHCG; assay: Post-emergence herbicidal action against ECHCG; type: in vivo, Echinochloa crus-galli
Summary of the method: as §2

[17] = tested on: MATIN; assay: Post-emergence herbicidal action against MATIN; type: in vivo, Matricaria inodora
Summary of the method: as §2

[18] = tested on: PHBPU; assay: Post-emergence herbicidal action against PHBPU; type: in vivo, Pharbitis purpurea
Summary of the method: as §2

[19] = tested on: SETVI; assay: Post-emergence herbicidal action against SETVI; type: in vivo, Setaria viridis
Summary of the method: as §2

[20] = tested on: VERPE; assay: Post-emergence herbicidal action against VERPE; type: in vivo, Veronica persica; conditions: 20 g/ha; for pest or weed control at 20 g/ha: Veronica persica, 504 h
Summary of the method: as §2

[21] = tested on: VIOTR; assay: Post-emergence herbicidal action against VIOTR; type: in vivo, Viola tricolor; conditions: Viola tricolor, 504 h, 20 g/ha
Summary of the method: as §2

[22] = tested on: DIGSA; assay: Pre-emergence herbicidal action against DIGSA; type: in vivo, Digitaria sanguinalis
Summary of the method: as §1

[23] = tested on: DIGSA; assay: Post-emergence herbicidal action against DIGSA; type: in vivo, Digitaria sanguinalis
Summary of the method: as §2

[24] = 80 g/ha, scored visually after 3 weeks vs untreated controls (100% = plants have died, 0% = like control plants)
[25] = dosage 20 g/ha, scored visually after 3 weeks vs untreated controls, 100% = plants have died, 0% = like control plants
[26] = 20 g/ha, scored visually after 3 weeks vs untreated controls, 100% = plants have died, 0% = like control plants
[27] = 80 g/ha, scored visually after 3 weeks vs untreated controls, 100% = plants have died, 0% = like control plants
[28] = Ipomoea purpurea, 504 h, dosage 80 g/ha
[29] = Fallopia convolvulus, 504 h, dosage 80 g/ha
[30] = Echinochloa crus-galli, 504 h, dosage 20 g/ha
[31] = Tripleurospermum inodorum, 504 h, dosage 20 g/ha
[32] = Ipomoea purpurea, 504 h, dosage 20 g/ha
[33] = Setaria viridis, 504 h, dosage 20 g/ha

CCNC(=O)c1c(C(F)(F)F)ccc(C(=O)Nc2nnnn2C)c1CC [Example 1-272]
90%: pest or weed control at 20 g/ha [1, 25] | pest or weed control at 20 g/ha [2] | pest or weed control at 80 g/ha ([4]; Avena fatua, 504 h, 80 g/ha) | pest or weed control at 20 g/ha [7] | pest or weed control at 80 g/ha [9, 29] | pest or weed control at 80 g/ha ([11]; dosage 80 g/ha) | pest or weed control at 20 g/ha ([12]; dosage 20 g/ha) | pest or weed control at 20 g/ha [13] | pest or weed control at 20 g/ha [14] | pest or weed control at 20 g/ha [16, 30] | pest or weed control at 20 g/ha [17, 31] | pest or weed control at 20 g/ha [18, 32] | pest or weed control at 5 g/ha ([19]; Setaria viridis, 504 h, dosage 5 g/ha) | pest or weed control at 20 g/ha [19, 33] | pest or weed control at 20 g/ha [21]
80%: pest or weed control at 80 g/ha [6] | pest or weed control at 80 g/ha [8, 28] | pest or weed control at 20 g/ha ([9]; Fallopia convolvulus, 504 h, dosage 20 g/ha) | pest or weed control at 20 g/ha [10] | pest or weed control at 5 g/ha ([13]; dosage 5 g/ha) | pest or weed control at 5 g/ha ([16]; Echinochloa crus-galli, 504 h, dosage 5 g/ha) | pest or weed control at 20 g/ha [20]
100%: pest or weed control at 80 g/ha [1, 24] | pest or weed control at 80 g/ha [2, 24] | pest or weed control at 20 g/ha [3, 26] | pest or weed control at 80 g/ha [3, 27] | pest or weed control at 80 g/ha ([5]; Echinochloa crus-galli, 504 h) | pest or weed control at 80 g/ha ([7]; dosage 80 g/ha) | pest or weed control at 80 g/ha [10] | pest or weed control at 80 g/ha ([12]; dosage 80 g/ha) | pest or weed control at 20 g/ha ([15]; Amaranthus retroflexus, 504 h)

Cc1c(C(=O)Nc2nnnn2C)ccc(C(F)F)c1C(=O)NC(C)C1CC1 (stereo not drawn) [Example 1-339]
100%: Pre-emergence action against ABUTH (herbicidal activity) [1, 24] | Pre-emergence action against AMARE in % [3, 26] | Pre-emergence action against AMARE in % [3, 24] | Pre-emergence action against AVEFA in % ([4]; 80 g/ha) | Pre-emergence action against ECHCG in % [5] | Pre-emergence action against LOLRI in % [6] | Pre-emergence action against MATIN in % ([7]; dosage 80 g/ha) | Pre-emergence action against PHBPU in % ([8]; dosage 20 g/ha) | Pre-emergence action against PHBPU in % ([8]; dosage 80 g/ha) | Pre-emergence action against VERPE in % ([11]; dosage 20 g/ha) | Pre-emergence action against VERPE in % ([11]; dosage 80 g/ha) | Pre-emergence action against VIOTR in % ([12]; dosage 20 g/ha) | Pre-emergence action against VIOTR in % ([12]; dosage 80 g/ha) | Pre-emergence action against DIGSA in % ([22]; dosage 20 g/ha) | Pre-emergence action against DIGSA in % ([22]; dosage 80 g/ha)
90%: Pre-emergence action against ABUTH (herbicidal activity in percent) [1, 25] | Pre-emergence action against ALOMY (herbicidal activity) [2, 24] | Post-emergence action at 20 g/ha against AMARE in % [15] | Post-emergence action against ECHCG in % ([16]; dosage 5 g/ha) | Post-emergence action against ECHCG in % ([16]; dosage 20 g/ha) | Post-emergence action against PHBPU in % ([18]; dosage 20 g/ha) | Post-emergence action against SETVI in % ([19]; dosage 20 g/ha) | Post-emergence action against VERPE in % [20] | Post-emergence action against DIGSA in % ([23]; 5 g/ha) | Post-emergence action against DIGSA ([23]; 20 g/ha)
80%: Pre-emergence action against POLCO in % ([9]; dosage 80 g/ha) | Post-emergence action against ALOMY in % [14] | Post-emergence action against MATIN in % ([17]; dosage 20 g/ha) | Post-emergence action against PHBPU in % ([18]; dosage 5 g/ha) | Post-emergence action against SETVI in % ([19]; dosage 5 g/ha)

CCNC(=O)c1c(I)ccc(C(=O)Nc2nnnn2CC)c1Cl [Example 2-196]
80%: pest or weed control at 20 g/ha ([4]; Avena fatua, 504 h, 20 g/ha, scored visually after 3 weeks, 100% = plants have died, 0% = like control plants) | pest or weed control at 20 g/ha [8, 32] | pest or weed control at 80 g/ha ([11]; dosage 80 g/ha) | pest or weed control at 20 g/ha [16, 30] | pest or weed control at 5 g/ha ([17]; Tripleurospermum inodorum, 504 h, dosage 5 g/ha) | pest or weed control at 20 g/ha [20]
90%: pest or weed control at 20 g/ha [2] | pest or weed control at 80 g/ha [8, 28] | pest or weed control at 80 g/ha [9, 29] | pest or weed control at 20 g/ha [10] | pest or weed control at 20 g/ha ([12]; dosage 20 g/ha) | pest or weed control at 20 g/ha ([22]; Digitaria sanguinalis, 504 h, dosage 20 g/ha) | pest or weed control at 20 g/ha [14] | pest or weed control at 20 g/ha [17, 31] | pest or weed control at 20 g/ha ([23]; Digitaria sanguinalis, 504 h, 20 g/ha)
100%: pest or weed control at 80 g/ha [1, 24] | pest or weed control at 20 g/ha [1, 25] | pest or weed control at 80 g/ha [2, 24] | pest or weed control at 20 g/ha [3, 26] | pest or weed control at 80 g/ha [3, 27] | pest or weed control at 80 g/ha ([4]; Avena fatua, 504 h, 80 g/ha) | pest or weed control at 80 g/ha [6] | pest or weed control at 20 g/ha [7] | pest or weed control at 80 g/ha ([7]; dosage 80 g/ha) | pest or weed control at 80 g/ha [10] | pest or weed control at 80 g/ha ([12]; dosage 80 g/ha) | pest or weed control at 80 g/ha ([22]; Digitaria sanguinalis, 504 h, dosage 80 g/ha) | pest or weed control at 20 g/ha [13] | pest or weed control at 20 g/ha [19, 33]
